System: T1, IspH
T1 construct: complete ORF in pET-28a(+) NcoI/XhoI, C-terminal His-tag, E. coli BL21(DE3) with isc operon, [4Fe-4S] cluster, Ni-NTA purified anaerobically
Assay: headspace GC of isoamylene (2-methyl-2-butene and 3-methyl-1-butene) formation; Michaelis-Menten and Lineweaver-Burk
Assay type: biochemical, Bacillus sp. N16-5
Details: 1 mM NADPH, 20 µM Fd, 5 µM FNR, 2 mM DTT, 20 mM Tris-HCl pH 7.8, 150 mM NaCl, 37 °C, anaerobic; DMAPP 0.1 to 1 mM

## CC(C)=CCOP(=O)(O)OP(=O)(O)O [DMAPP]
  Km: ~275 µM

From publication PMC4864966, “Two unexpected promiscuous activities of the iron–sulfur protein IspH in production of isoprene and isoamylene” (Microbial Cell Factories, 2016)
